Data published in patent US12721823B2, “Methods and compositions for treatment of low circulating testosterone conditions” (University of Florida Research Foundation, Inc., priority 2021, dated 2026).

Test system: Sprague-Dawley rats
Test: Elevated plus maze (EPM)
Type: in vivo, rat
Text: Sixty-four G1 rats (32 control and 32 sevoflurane exposed) and 122 G2 rats, which were not exposed to sevoflurane anesthesia and were subjected to animal facility rearing only, were studied. The G1 rats were sequentially evaluated in the EPM starting on ~P125, PPI of the acoustic startle response on ~P135 and MWM starting ~on P145 (FIG. 1). One half of these animals were sacrificed on ≥P160 to collect trunk blood, brain and testis and ovarian tissues for further analyses. The rest of these animals were physically restrained for 30 min on ≥P160 to measure corticosterone responses, followed by collection of tissue samples (as above) for further analyses. The G2 rats were evaluated in the EPM starting on P60 and PPI of startle on P70 (FIG. 1). One half of these animals were sacrificed on ≥P95 to collect trunk blood and brain tissue samples for further analyses, and the rest of these animals were tested for the corticosterone responses to physical restraint for 30 min on ≥P95 before collecting the trunk blood and brain tissue samples.
The EPM studies were performed using an EPM apparatus and BIO-EPM 3C video tracking software (EB Instruments, Pinellas Park, FL) during the light phase of the dark-light cycle as previously described by our laboratory.^5-7 If a fall occurred, the animal was removed from the study (one G1 male rat was removed from the study for this reason).

[1] = G1 male rats, more than two months after exposure, vs control
[2] = G2 females, all groups of parental exposure
[3] = G2 male offspring of both exposed parents

FCOC(C(F)(F)F)C(F)(F)F [sevoflurane, 1,1,1,3,3,3-hexafluoro-2-(fluoromethoxy)propane]
EPM parameters (time in open arms, number of crossings, distance traveled) (G1 female rats, vs control): no significant between-subjects effect | distance traveled, EPM [1]: did not differ | number of crossings, EPM [1]: did not differ | time spent in open arms, EPM [1]: spent less time in open arms | distances traveled, EPM [2]: similar | number of crossings, EPM [2]: similar | time spent in open arms, EPM [2]: similar | distance traveled, EPM [3]: shorter distances | number of crossings, EPM [3]: fewer crossings | time spent in open arms, EPM (G2 male progeny of exposed fathers and exposed mothers, vs offspring of control parents): spent less time in open arms | time spent in open arms, EPM (G2 male progeny of sevoflurane exposed fathers and unexposed mothers, vs offspring of control parents): spent less time in open arms | time spent in open arms, EPM (G2 male progeny of unexposed fathers and exposed mothers, vs offspring of control parents): spent less time in open arms
